According to patent US20240158370A1, “CK1 alpha AND DUAL CK1 alpha / GSPT1 DEGRADING COMPOUNDS” (Innovo Therapeutics, Inc., priority 2022, published 2024):

Legend:
CK1α = biological target: T1, CK1α (Homo sapiens, UniProt P48729+Q96SW2); test: HiBiT degradation assay, CK1α, Procedure A; format: cell-based; conditions: six hours incubation
T1 construct: CSNK1A1-HiBit KI HEK293(LgBit) Cells; host or cells: HEK293(LgBit) knock-in cells
Method in brief: (§1)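 Luminescence from HiBiT lytic detection reports remaining tagged protein after cells sit six hours at 37° C with compound across ten concentrations (10 μM down to 0.005 μM, 0.1% DMSO). A 4-parameter curve fit gives DC50 and Ymin.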

GSPT1 = GSPT1 (Homo sapiens, UniProt P15170+Q96SW2); test: HiBiT degradation assay, GSPT1, Procedure A; format: cell-based; design: HiBit-GSPT1 KI HEK293(LgBit) Cells; host or cells: HEK293(LgBit) knock-in cells; conditions: six hours incubation
GSPT1, sequence (P15170 whole entry): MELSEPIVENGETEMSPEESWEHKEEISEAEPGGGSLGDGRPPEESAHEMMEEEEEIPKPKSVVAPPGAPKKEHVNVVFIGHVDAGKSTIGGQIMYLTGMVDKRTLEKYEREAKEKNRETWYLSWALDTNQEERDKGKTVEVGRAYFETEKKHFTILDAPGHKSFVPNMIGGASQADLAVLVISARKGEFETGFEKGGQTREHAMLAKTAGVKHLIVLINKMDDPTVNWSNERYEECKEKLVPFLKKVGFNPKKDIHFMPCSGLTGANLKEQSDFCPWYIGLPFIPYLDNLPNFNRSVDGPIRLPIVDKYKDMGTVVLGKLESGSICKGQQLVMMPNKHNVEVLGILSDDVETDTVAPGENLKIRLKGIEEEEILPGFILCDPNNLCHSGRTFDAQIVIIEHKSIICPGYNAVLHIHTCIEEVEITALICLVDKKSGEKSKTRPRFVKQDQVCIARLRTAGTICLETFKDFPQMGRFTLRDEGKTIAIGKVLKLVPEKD
GSPT1, sequence (Q96SW2 whole entry): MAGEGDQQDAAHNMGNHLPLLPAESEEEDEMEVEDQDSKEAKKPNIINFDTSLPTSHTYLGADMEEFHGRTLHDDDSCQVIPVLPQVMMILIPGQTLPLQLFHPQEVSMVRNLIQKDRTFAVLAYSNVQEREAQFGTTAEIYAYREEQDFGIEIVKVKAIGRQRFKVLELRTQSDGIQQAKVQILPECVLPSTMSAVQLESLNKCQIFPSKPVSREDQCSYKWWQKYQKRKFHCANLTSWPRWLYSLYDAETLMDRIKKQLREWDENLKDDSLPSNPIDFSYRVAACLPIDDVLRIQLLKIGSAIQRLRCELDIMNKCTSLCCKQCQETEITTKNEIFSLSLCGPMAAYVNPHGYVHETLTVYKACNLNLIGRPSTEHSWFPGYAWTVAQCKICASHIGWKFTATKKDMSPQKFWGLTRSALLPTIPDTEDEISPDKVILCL
GSPT1, sequence (Q16531 whole entry partner): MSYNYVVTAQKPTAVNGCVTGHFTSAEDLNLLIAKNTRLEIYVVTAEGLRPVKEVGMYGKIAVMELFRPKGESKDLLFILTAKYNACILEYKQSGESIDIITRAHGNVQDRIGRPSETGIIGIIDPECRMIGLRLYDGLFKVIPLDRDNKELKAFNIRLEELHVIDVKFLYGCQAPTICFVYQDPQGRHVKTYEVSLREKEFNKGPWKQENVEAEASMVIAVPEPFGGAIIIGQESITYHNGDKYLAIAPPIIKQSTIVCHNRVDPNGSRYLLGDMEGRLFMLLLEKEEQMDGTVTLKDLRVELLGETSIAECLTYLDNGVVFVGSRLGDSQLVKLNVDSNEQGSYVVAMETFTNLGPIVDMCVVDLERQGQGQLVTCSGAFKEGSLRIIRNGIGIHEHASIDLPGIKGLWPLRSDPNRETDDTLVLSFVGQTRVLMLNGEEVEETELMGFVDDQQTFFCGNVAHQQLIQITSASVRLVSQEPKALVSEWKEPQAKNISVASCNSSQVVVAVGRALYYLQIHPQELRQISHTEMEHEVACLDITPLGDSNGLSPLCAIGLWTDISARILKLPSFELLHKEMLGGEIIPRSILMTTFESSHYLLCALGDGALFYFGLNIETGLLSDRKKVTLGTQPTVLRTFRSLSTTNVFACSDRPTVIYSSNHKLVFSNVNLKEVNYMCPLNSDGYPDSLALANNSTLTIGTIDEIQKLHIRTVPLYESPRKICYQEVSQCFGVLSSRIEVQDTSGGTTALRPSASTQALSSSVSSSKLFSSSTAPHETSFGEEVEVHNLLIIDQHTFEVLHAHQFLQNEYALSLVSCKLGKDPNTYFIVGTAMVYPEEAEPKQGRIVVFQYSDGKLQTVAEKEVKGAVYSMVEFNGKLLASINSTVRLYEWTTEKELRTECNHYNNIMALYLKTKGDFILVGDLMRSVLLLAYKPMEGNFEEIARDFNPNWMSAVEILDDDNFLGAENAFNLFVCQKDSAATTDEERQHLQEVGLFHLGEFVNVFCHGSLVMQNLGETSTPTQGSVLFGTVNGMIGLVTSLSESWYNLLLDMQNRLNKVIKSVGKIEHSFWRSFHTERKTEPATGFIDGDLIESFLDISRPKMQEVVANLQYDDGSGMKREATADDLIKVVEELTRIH
Method in brief: as §1

T1 sequence (P48729 whole entry): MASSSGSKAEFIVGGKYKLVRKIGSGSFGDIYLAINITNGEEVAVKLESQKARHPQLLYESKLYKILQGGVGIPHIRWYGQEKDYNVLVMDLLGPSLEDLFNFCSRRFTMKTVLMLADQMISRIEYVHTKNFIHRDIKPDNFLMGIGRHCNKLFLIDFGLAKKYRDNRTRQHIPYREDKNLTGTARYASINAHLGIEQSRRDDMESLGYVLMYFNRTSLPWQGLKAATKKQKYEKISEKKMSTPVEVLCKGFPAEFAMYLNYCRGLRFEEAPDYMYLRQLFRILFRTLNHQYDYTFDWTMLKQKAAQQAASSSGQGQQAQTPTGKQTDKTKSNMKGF
T1 sequence (Q96SW2 whole entry): as the sequence (Q96SW2 whole entry) above
T1 sequence (Q16531 whole entry partner): as the sequence (Q16531 whole entry partner) above

Structure (SMILES)	CK1α Ymin (CK1α)	DC50 (CK1α) [nM]	DC50 (GSPT1) [nM]	GSPT1 Ymin (GSPT1)
Cc1cccc(F)c1-c1c(-c2ccc3c(c2)CN(C2CCC(=O)NC2=O)C3=O)ncn1C (stereo not drawn) [Example 172]	E (E = >25-75% remaining)	< 25	≥ 25	F (F = >75-100% remaining)
Cn1ncc(-c2ccc3c(c2)CN(C2CCC(=O)NC2=O)C3=O)c1-c1cccc(Cl)c1 (stereo not drawn) [Example 173]	E (E = >25-75% remaining)	< 25	≥ 25	F (F = >75-100% remaining)
Cn1ncc(-c2ccc3c(c2)CN(C2CCC(=O)NC2=O)C3=O)c1-c1ccc(Cl)cc1 (stereo not drawn) [Example 174]	D (D = >10- 25% remaining)	< 25	< 25	E (E = >25-75% remaining)
Cn1cnc(-c2ccc3c(c2)CN(C2CCC(=O)NC2=O)C3=O)c1-c1ccccc1Cl (stereo not drawn) [Example 175]	D (D = >10- 25% remaining)	< 25	≥ 25	F (F = >75-100% remaining)
Cn1cnc(-c2ccc3c(c2)CN(C2CCC(=O)NC2=O)C3=O)c1-c1ccc(F)cc1F (stereo not drawn) [Example 176]	D (D = >10- 25% remaining)	< 25	< 25	E (E = >25-75% remaining)
Cn1cnc(-c2ccc3c(c2)CN(C2CCC(=O)NC2=O)C3=O)c1-c1ccc(F)c(F)c1 (stereo not drawn) [Example 177]	D (D = >10- 25% remaining)	< 25	< 25	E (E = >25-75% remaining)
Cn1ncc(-c2ccc3c(c2)CN(C2CCC(=O)NC2=O)C3=O)c1-c1cc(F)cc(F)c1 (stereo not drawn) [Example 178]	D (D = >10- 25% remaining)	< 25	< 25	F (F = >75-100% remaining)
Cn1cnc(-c2ccc3c(c2)CN(C2CCC(=O)NC2=O)C3=O)c1-c1cc(F)ccc1F (stereo not drawn) [Example 179]	D (D = >10- 25% remaining)	< 25	< 25	E (E = >25-75% remaining)
Cc1cc(C#N)ccc1-c1c(-c2ccc3c(c2)CN(C2CCC(=O)NC2=O)C3=O)ncn1C (stereo not drawn) [Example 180]	E (E = >25-75% remaining)	≥ 25	≥ 25	F (F = >75-100% remaining)
Cn1cnc(-c2ccc3c(c2)CN(C2CCC(=O)NC2=O)C3=O)c1-c1ccc(Cl)s1 (stereo not drawn) [Example 181]	C (C = 0-10% remaining)	< 25	≥ 25	E (E = >25-75% remaining)
CC(C)c1ccccc1-c1c(-c2ccc3c(c2)CN(C2CCC(=O)NC2=O)C3=O)ncn1C (stereo not drawn) [Example 182]	E (E = >25-75% remaining)	< 25	≥ 25	F (F = >75-100% remaining)
CC(C)c1cccc(-c2c(-c3ccc4c(c3)CN(C3CCC(=O)NC3=O)C4=O)ncn2C)c1 (stereo not drawn) [Example 183]	E (E = >25-75% remaining)	< 25	≥ 25	F (F = >75-100% remaining)
Cn1cnc(-c2ccc3c(c2)CN(C2CCC(=O)NC2=O)C3=O)c1-c1cc(F)cc(C#N)c1 (stereo not drawn) [Example 185]	D (D = >10- 25% remaining)	< 25	≥ 25	F (F = >75-100% remaining)
Cn1cnc(-c2ccc3c(c2)CN(C2CCC(=O)NC2=O)C3=O)c1-c1cc(C#N)ccc1F (stereo not drawn) [Example 186]	E (E = >25-75% remaining)	≥ 25	≥ 25	F (F = >75-100% remaining)
Cn1cnc(-c2ccc3c(c2)CN(C2CCC(=O)NC2=O)C3=O)c1-c1ccc(C#N)cc1F (stereo not drawn) [Example 187]	D (D = >10- 25% remaining)	< 25	≥ 25	F (F = >75-100% remaining)
COc1ccc(-c2c(-c3ccc4c(c3)CN(C3CCC(=O)NC3=O)C4=O)ncn2C)c(C)c1 (stereo not drawn) [Example 188]	C (C = 0-10% remaining)	< 25	< 25	E (E = >25-75% remaining)

More lines, now with the values ahead:

CK1α Ymin (CK1α)	DC50 (CK1α) [nM]	DC50 (GSPT1) [nM]	GSPT1 Ymin (GSPT1)	Structure (SMILES)
C (C = 0-10% remaining)	< 25	< 25	E (E = >25-75% remaining)	COc1ccc(-c2c(-c3ccc4c(c3)CN(C3CCC(=O)NC3=O)C4=O)ncn2C)c(F)c1 (stereo not drawn) [Example 189]
E (E = >25-75% remaining)	< 25	< 25	E (E = >25-75% remaining)	COc1cccc(-c2c(-c3ccc4c(c3)CN(C3CCC(=O)NC3=O)C4=O)ncn2C)c1F (stereo not drawn) [Example 190]
E (E = >25-75% remaining)	< 25	< 25	E (E = >25-75% remaining)	COc1ccc(F)cc1-c1c(-c2ccc3c(c2)CN(C2CCC(=O)NC2=O)C3=O)ncn1C (stereo not drawn) [Example 191]
E (E = >25-75% remaining)	< 25	< 25	E (E = >25-75% remaining)	COc1cc(F)ccc1-c1c(-c2ccc3c(c2)CN(C2CCC(=O)NC2=O)C3=O)ncn1C (stereo not drawn) [Example 192]
D (D = >10- 25% remaining)	< 25	< 25	F (F = >75-100% remaining)	COc1ccc(F)c(-c2c(-c3ccc4c(c3)CN(C3CCC(=O)NC3=O)C4=O)ncn2C)c1 (stereo not drawn) [Example 193]
C (C = 0-10% remaining)	< 25	< 25	E (E = >25-75% remaining)	COc1ccc(-c2c(-c3ccc4c(c3)CN(C3CCC(=O)NC3=O)C4=O)ncn2C)cc1F (stereo not drawn) [Example 194]
D (D = >10- 25% remaining)	< 25	< 25	E (E = >25-75% remaining)	COc1c(F)cccc1-c1c(-c2ccc3c(c2)CN(C2CCC(=O)NC2=O)C3=O)ncn1C (stereo not drawn) [Example 195]
E (E = >25-75% remaining)	< 25	< 25	F (F = >75-100% remaining)	Cc1ccc(Cl)cc1-c1c(-c2ccc3c(c2)CN(C2CCC(=O)NC2=O)C3=O)ncn1C (stereo not drawn) [Example 196]
E (E = >25-75% remaining)	< 25	< 25	E (E = >25-75% remaining)	Cc1ccc(-c2c(-c3ccc4c(c3)CN(C3CCC(=O)NC3=O)C4=O)ncn2C)cc1Cl (stereo not drawn) [Example 197]
C (C = 0-10% remaining)	< 25	< 25	E (E = >25-75% remaining)	Cc1ccc(-c2c(-c3ccc4c(c3)CN(C3CCC(=O)NC3=O)C4=O)ncn2C)c(Cl)c1 (stereo not drawn) [Example 198]
D (D = >10- 25% remaining)	< 25	< 25	F (F = >75-100% remaining)	Cc1ccc(Cl)c(-c2c(-c3ccc4c(c3)CN(C3CCC(=O)NC3=O)C4=O)ncn2C)c1 (stereo not drawn) [Example 199]
D (D = >10- 25% remaining)	< 25	< 25	E (E = >25-75% remaining)	Cc1cc(-c2c(-c3ccc4c(c3)CN(C3CCC(=O)NC3=O)C4=O)ncn2C)ccc1Cl (stereo not drawn) [Example 200]
E (E = >25-75% remaining)	< 25	≥ 25	F (F = >75-100% remaining)	Cc1cc(Cl)cc(-c2c(-c3ccc4c(c3)CN(C3CCC(=O)NC3=O)C4=O)ncn2C)c1 (stereo not drawn) [Example 201]
D (D = >10- 25% remaining)	< 25	≥ 25	F (F = >75-100% remaining)	Cn1cnc(-c2ccc3c(c2)CN(C2CCC(=O)NC2=O)C3=O)c1-c1cccc(C(F)F)c1 (stereo not drawn) [Example 202]
D (D = >10- 25% remaining)	< 25	≥ 25	E (E = >25-75% remaining)	Cn1cnc(-c2ccc3c(c2)CN(C2CCC(=O)NC2=O)C3=O)c1-c1ccc(C(F)F)cc1 (stereo not drawn) [Example 203]
E (E = >25-75% remaining)	< 25	≥ 25	F (F = >75-100% remaining)	Cn1cnc(-c2ccc3c(c2)CN(C2CCC(=O)NC2=O)C3=O)c1-c1cc(F)cc(Cl)c1 (stereo not drawn) [Example 204]
E (E = >25-75% remaining)	< 25	≥ 25	F (F = >75-100% remaining)	O=C1CCC(N2Cc3cc(-c4cncn4-c4ccccc4)ccc3C2=O)C(=O)N1 (stereo not drawn) [Example 205, 3-(1-Oxo-5-(1-phenyl-1H-imidazol-5-yl)isoindolin-2-yl)piperidine-2,6-dione]
E (E = >25-75% remaining)	≥ 25	≥ 25	F (F = >75-100% remaining)	O=C1CCC(N2Cc3cc(-c4conc4-c4ccccc4)ccc3C2=O)C(=O)N1 (stereo not drawn) [Example 206, 3-(1-Oxo-5-(3-phenylisoxazol-4-yl)isoindolin-2-yl)piperidine-2,6-dione]
D (D = >10- 25% remaining)	< 25	≥ 25	F (F = >75-100% remaining)	[2H]C([2H])([2H])n1ncc(-c2ccc3c(c2)CN(C2CCC(=O)NC2=O)C3=O)c1-c1ccccc1 (stereo not drawn) [Example 207, 3-(5-(1-(Methyl-d3)-5-phenyl-1H-pyrazol-4-yl)-1-oxoisoindolin-2-yl)piperidine-2,6-dione]
D (D = >10- 25% remaining)	< 25	≥ 25	F (F = >75-100% remaining)	O=C1CCC(N2Cc3cc(-c4cnn(CC(F)(F)F)c4-c4ccccc4)ccc3C2=O)C(=O)N1 (stereo not drawn) [Example 208, 3-(1-Oxo-5-(5-phenyl-1-(2,2,2-trifluoroethyl)-1H-pyrazol-4-yl)isoindolin-2-yl)piperidine-2,6-dione]
